From US10125118B2, “Heteroaryl compounds and their use as therapeutic drugs” (Dong-A Socio Holdings Co., Ltd., priority 2015, dated 2018)

Molecular target: human c-MER catalytic domain (Homo sapiens (Human), UniProt Q12866)
Experiment: LanthaScreen TR-FRET kinase assay, c-MER
Conditions: read-out: Mer TK inhibition (IC50); Biochemical IC50, TR-FRET, 10 uM ATP

human c-MER catalytic domain, sequence (Q12866 587-858): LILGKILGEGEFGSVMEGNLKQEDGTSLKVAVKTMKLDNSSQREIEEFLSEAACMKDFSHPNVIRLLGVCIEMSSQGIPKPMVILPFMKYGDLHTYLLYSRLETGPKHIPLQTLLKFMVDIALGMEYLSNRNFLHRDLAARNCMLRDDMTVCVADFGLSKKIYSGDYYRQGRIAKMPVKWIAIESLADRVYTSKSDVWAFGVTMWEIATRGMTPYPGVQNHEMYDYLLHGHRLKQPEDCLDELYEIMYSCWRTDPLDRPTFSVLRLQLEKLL

SMILES | IC50 [nM]
CC(C)C[C@H](COCc1ccccc1)NC(=O)c1cc(-c2cnn(C)c2)cnc1N [Example 112, (R)-2-amino-N-(1-(benzyloxy)-4-methylpentan-2-yl)-5-(1-methyl-1H-pyrazol-4-yl)nicotinamide] | > 1000
C[C@@H](CNC(=O)c1cc(-c2cnn(C)c2)cnc1N)OCc1ccccc1 [Example 96, (S)-2-amino-N-(2-(benzyloxy)propyl)-5-(1-methyl-1H-pyrazol-4-yl)nicotinamide] | > 1000
Nc1ncc(-c2cnn(C3CCNCC3)c2)nc1C(=O)N[C@H]1CCCc2ccccc21 [Example 362, (S)-3-amino-6-(1-(piperidin-4-yl)-1H-pyrazol-4-yl)-N-(1,2,3,4-tetrahydronaphthalen-1-yl)pyrazine-2-carboxamide] | > 1000
CN1CCN(Cc2ccc(-c3ccc(CO[C@H]4CCC[C@@H]4NC(=O)c4cc(-c5cnn(C)c5)cnc4N)cc3)nc2)CC1 [Example 204, 2-amino-5-(1-methyl-1H-pyrazol-4-yl)-N-((1S,2S)-2-((4-(5-((4-methylpiperazin-1-yl)methyl)pyridin-2-yl)benzyl)oxy)cyclopentyl)nicotinamide] | < 10
COC(=O)[C@H](COCc1ccccc1)NC(=O)c1cc(-c2cnn(C)c2)cnc1N [Example 120, methyl N-(2-amino-5-(1-methyl-1H-pyrazol-4-yl)nicotinoyl)-O-benzyl-L-serinate] | > 1000
C[C@H](COCc1ccc(Cl)c(Cl)c1)NC(=O)c1cc(-c2cnn(C)c2)cnc1N [Example 104, (R)-2-amino-N-(1-((3,4-dichlorobenzyl)oxy)propan-2-yl)-5-(1-methyl-1H-pyrazol-4-yl)nicotinamide] | > 1000
Cc1c(N)cccc1-c1ccc(CO[C@H]2CCC[C@@H]2NC(=O)c2cc(-c3cnn(C)c3)cnc2N)cc1 [Example 139, 2-amino-N-((1S,2S)-2-((3′-amino-2′-methyl-[1,1′-biphenyl]-4-yl)methoxy)cyclopentyl)-5-(1-methyl-1H-pyrazol-4-yl)nicotinamide] | > 1000
CN1CCN(Cc2ccc(Nc3ccc(C(=O)N[C@H]4CCC[C@@H]4OCc4ccccc4)c(N)n3)cc2)CC1 [Example 456, 2-amino-N-((1S,2S)-2-(benzyloxy)cyclopentyl)-6-((4-((4-methylpiperazin-1-yl)methyl)phenyl)amino)nicotinamide] | > 1000
C[C@H](CNC(=O)c1cc(-c2cnn(C)c2)cnc1N)OCc1ccccc1 [Example 95, (R)-2-amino-N-(2-(benzyloxy)propyl)-5-(1-methyl-1H-pyrazol-4-yl)nicotinamide] | > 1000
CN(C)CCCc1ccc(CO[C@H]2CCC[C@@H]2NC(=O)c2cc(-c3cnn(C)c3)cnc2N)cc1 [Example 244, 2-amino-N-((1S,2S)-2-((4-(3-(dimethylamino)propyl)benzyl)oxy)-cyclopentyl)-5-(1-methyl-1H-pyrazol-4-yl)nicotinamide] | > 1000
Nc1nc(Nc2ccccc2)ccc1C(=O)N[C@H]1CCC[C@@H]1OCc1ccccc1 [Example 457, 2-amino-N-((1S,2S)-2-(benzyloxy)cyclopentyl)-6-(phenylamino)-nicotinamide] | > 1000
COc1cccc(CO[C@@H](C)CNC(=O)c2cc(-c3cnn(C)c3)cnc2N)c1 [Example 107, (S)-2-amino-N-(2-((3-methoxybenzyl)oxy)propyl)-5-(1-methyl-1H-pyrazol-4-yl)nicotinamide] | > 1000
CNC(=O)[C@@H](NC(=O)c1cc(-c2cnn(C)c2)cnc1N)[C@@H](C)OCc1ccccc1 [Example 122, 2-amino-N-((2S,3R)-3-(benzyloxy)-1-(methylamino)-1-oxobutan-2-yl)-5-(1-methyl-1H-pyrazol-4-yl)nicotinamide] | > 1000
CN1CCN(C(C)(C)c2ccc(-c3ccc(CO[C@H]4CCC[C@@H]4NC(=O)c4cccnc4N)cc3)cc2)CC1 [Example 167, 2-amino-N-((1S,2S)-2-((4′-(2-(4-methylpiperazin-1-yl)propan-2-yl)-[1,1′-biphenyl]-4-yl)methoxy)cyclopentyl)nicotinamide] | < 10
Cn1cc(-c2cnc(N)c(C(=O)N[C@H]3CCC[C@H]3O)c2)cn1 (relative stereo) [Example 70, 2-amino-N-(cis-2-hydroxycyclopentyl)-5-(1-methyl-1H-pyrazol-4-yl)nicotinamide] | > 1000
COc1ccc(CO[C@@H]2CCC[C@H]2NC(=O)c2cc(-c3cnn(C)c3)cnc2N)cc1 [Example 36, 2-amino-N-((1R,2R)-2-((4-methoxybenzyl)oxy)cyclopentyl)-5-(1-methyl-1H-pyrazol-4-yl)nicotinamide] | > 1000
C[C@H](NC(=O)c1cc(-c2cnn(C)c2)cnc1N)C(=O)OCc1ccccc1 [Example 126, benzyl (2-amino-5-(1-methyl-1H-pyrazol-4-yl)nicotinoyl)-L-alaninate] | > 1000
Cn1cc(-c2cnc(N)c(C(=O)N[C@H]3COC[C@@H]3N3CCCC3)c2)cn1 (relative stereo) [Example 91, 2-amino-5-(1-methyl-1H-pyrazol-4-yl)-N-(trans-4-(pyrrolidin-1-yl)tetrahydrofuran-3-yl)nicotinamide] | > 1000
Cn1cc(-c2cnc(N)c(C(=O)N[C@H]3CCC[C@@H]3OCc3cccc(-c4cccc(CO)c4)c3)c2)cn1 [Example 171, 2-amino-N-((1S,2S)-2-((3′-(hydroxymethyl)-[1,1′-biphenyl]-3-yl)-methoxy)cyclopentyl)-5-(1-methyl-1H-pyrazol-4-yl)nicotinamide] | > 1000
Cn1cc(-c2cnc(N)c(C(=O)N[C@@H](COCc3ccccc3)c3ccccc3)c2)cn1 [Example 116, (R)-2-amino-N-(2-(benzyloxy)-1-phenylethyl)-5-(1-methyl-1H-pyrazol-4-yl)nicotinamide] | > 1000
Cn1cc(-c2cnc(N)c(C(=O)N[C@@H]3[C@@H](COc4ccccc4)CCC3(F)F)c2)cn1 (relative stereo) [Example 79, 2-amino-N-(trans-2,2-difluoro-5-(phenoxymethyl)cyclopentyl)-5-(1-methyl-1H-pyrazol-4-yl)nicotinamide] | > 1000
Cn1cc(-c2cnc(N)c(C(=O)NC(C)(C)COCc3ccccc3)c2)cn1 [Example 99, 2-amino-N-(1-(benzyloxy)-2-methylpropan-2-yl)-5-(1-methyl-1H-pyrazol-4-yl)nicotinamide] | > 1000
CCNc1ncc(-c2cnn(C)c2)cc1C(=O)N[C@H]1CCC[C@@H]1OCc1ccccc1 [Example 71, N-((1S,2S)-2-(benzyloxy)cyclopentyl)-2-(ethylamino)-5-(1-methyl-1H-pyrazol-4-yl)nicotinamide] | > 1000
Cn1cc(-c2cnc(N)c(C(=O)N[C@H]3CCC[C@@H]3OCc3ccccc3)n2)cn1 [Example 129, 3-amino-N-((1S,2S)-2-(benzyloxy)cyclopentyl)-6-(1-methyl-1H-pyrazol-4-yl)pyrazine-2-carboxamide] | > 1000
Cn1cc(-c2cnc(N)c(C(=O)N[C@H]3CCC[C@@H]3COc3cccc(C(=O)N4CCCCC4)c3)c2)cn1 [Example 83, 2-amino-5-(1-methyl-1H-pyrazol-4-yl)-N-((1S,2S)-2-((3-(piperidine-1-carbonyl)phenoxy)methyl)cyclopentyl)nicotinamide] | > 1000
CN1CCN(Cc2ccc(-c3ccc(CO[C@H]4COCC4NC(=O)c4cc(-c5cnn(C)c5)cnc4N)cc3)cc2)CC1 (some centres unmarked) [Example 454] | < 10
